{"source": "patent US20210292710A1", "about": "“METHOD FOR ENHANCING IMMUNE FUNCTION OF IMMUNE CELL AND IMMUNE CELL LINE PRODUCED USING THE SAME” (INDUSTRY-ACADEMIC COOPERATION FOUNDATION, YONSEI UNIVERSITY, priority 2020, published 2021)", "key": {"[1]": {"test_system": "T cells", "experiment": "Extracellular acidification rate (ECAR) of T cells", "type": "cell-based, mouse", "description": "Further, referring to FIG. 5B, the extracellular acidification rate (ECAR) of T cells due to PI3K inhibitor treatment is shown. In this connection, to measure the extracellular acidification rate, the T cell used in FIG. 5A is used, and 1×10^5 T cells are used. Furthermore, the extracellular acidification rate refers to a measurement of glucose degradation via a change in pH resulting from lactate secretion in the medium. In this connection, as the oligomycin is injected to inhibit mitochondrial metabolism, T cells must produce ATP using only glycolysis. Thus, the extracellular acidification rate in phase 3 may mean pure glycolysis capacity. In this connection, 2DG is a molecule in which the 2-hydroxyl group of glucose is replaced with hydrogen and thus glucose may not be degraded. Furthermore, when the T cell is treated with 2DG, the extracellular acdification rate may be controlled in an upstream phase of glucose metabolism. Thus, the extracellular acidification rate in phase 4 may refer to the glucose reserve in the cell."}, "[2]": {"test_system": "pAKT (phosphoAKT)", "experiment": "pAKT expression in CD4 and CD8 T cells by flow cytometry (MFI)", "type": "cell-based, mouse", "conditions": "for AKT expression relative to control: after 48 hours", "description": "First, referring to FIG. 6, an expression level of pAKT (phosphoAKT) in an active state in the T cell due to PI3K inhibitor treatment is shown. In this connection, in order to identify AKT activation of T cells due to PI3K inhibitor treatment, the CD3+ T cells obtained in FIG. 2 are used. Furthermore, the obtained CD3+ T cells are co-cultured for 48 hours together with CD11c positive dendritic cells, anti-CD3 and anti-CD28. The pAKT expression is measured via flow cytometry in 6 and 48 hours after the co-culture has started. Furthermore, expression of pAKT is indicated as mean fluorescence intensity (MFI). Furthermore, CD4 and CD8 positive cells are used as T cells to measure expression of pAKT. In this connection, CD4 and CD8 are present in the cell membrane of the T cell and are cell-binding proteins that bind to non-polymorphic regions of class II MHC and class I MHC, respectively. CD4 may be a helper T cell as a T cell lineage marker. CD8 may refer to a cytotoxic T cell."}, "[3]": {"test_system": "AKT", "experiment": "AKT expression in T cells due to PI3K inhibitor and mTORC1 inhibitor treatment", "type": "cell-based", "conditions": "RAD001 as mTORC1 inhibitor, p<0.05", "excerpt": "Furthermore, referring to FIG. 8, AKT and GLUT1 expression levels in T cells due to PI3K inhibitor and mTORC1 inhibitor treatment are shown. In this connection, RAD001 is used as a mTORC1 inhibitor. First, referring to (a) of FIG. 8, AKT expression levels in T cells due to PI3K inhibitor and mTORC1 inhibitor treatment are shown. […] This may mean that when mTORC1 is inhibited, AKT expression is reduced, and thus mTORC1 is an important signal capable of rebounding AKT expression."}, "[4]": {"test_system": "lung-cancer cell line LLC2", "experiment": "Anti-cancer effect (tumor size) in lung-cancer cell line LLC2", "type": "in vivo", "description": "First, referring to FIG. 9A, the results of the anti-cancer effect in the lung-cancer cell line LLC2 due to PI3K inhibitor treatment are shown. […] However, when the PI3K inhibitor treatment is carried out, the tumor size is reduced compared to the control. More specifically, when the PI3K inhibitor BKM 120 treatment is carried out at 35 mpk, the tumor size on the 15th day is 300 to 350 mm^3. When BKM 120 treatment is carried out at 50 mpk, the tumor size on day 15 is found to be 90 to 100 mm^3."}, "[5]": {"test_system": "lung-cancer cell line KLN205", "experiment": "Anti-cancer effect (tumor size) in lung-cancer cell line KLN205", "type": "in vivo", "description": "Referring to FIG. 10A, the results of the anti-cancer effect against the lung-cancer cell line KLN205 due to the PI3K inhibitor treatment are shown. When the cell is treated with the vehicle as a control, the tumor size rapidly increases as the treatment days increase, and then the tumor size on the 15th day is 400 to 500 mm^3. However, when the cell is treated with the PI3K inhibitor, the tumor size is reduced compared to the control. More specifically, when the cell is treated with the PI3K inhibitor BKM 120 at 35 mpk, the tumor size on the 15th day is 200 to 250 mm^3. When the cell is treated with BKM 120 at 50 mpk, the tumor size on day 15 is found to be 90 to 100 mm^3."}, "[6]": {"test_system": "GLUT1", "experiment": "GLUT1 expression in T cell based on type of PI3K inhibitor", "excerpt": "More specifically, referring to (a) of FIG. 12, the results of GLUT1 expression according to the type of PI3K inhibitor in the helper T cell are shown. In this connection, the PI3K inhibitor may include BKM 120 that may inhibit all subtypes, CAL-101 that may inhibit only p110δ, IPI-145 capable of inhibiting p110γ and P110δ, BYLT719 capable of inhibiting only p110α, and TGX-211 capable of inhibiting only p110β.\nReferring to (b) of FIG. 12, the results of GLUT1 expression according to the type of PI3K inhibitor in cytotoxic T cells are shown."}}, "data": [{"smiles": "Nc1cc(C(F)(F)F)c(-c2cc(N3CCOCC3)nc(N3CCOCC3)n2)cn1", "note": "[BKM 120, buparlisib]", "values": [{"measurement": "extracellular acidification rate versus control", "setting": "[1]; phase 1, 1×10^5 T cells", "value": "higher"}, {"measurement": "extracellular acidification rate versus control", "setting": "[1]; phase 2, glucose injected", "value": "the difference between the extracellular acidification rates of the T cell group treated with PI3K inhibitor and the control increases"}, {"measurement": "extracellular acidification rate versus control", "setting": "[1]; phase 3, oligomycin injected (glycolysis capacity)", "value": "higher extracellular acidification rate than that of the control"}, {"measurement": "extracellular acidification rate versus control", "setting": "[1]; phase 4, 2-deoxy-D-glucose (2DG) injected (glucose reserve)", "value": "higher extracellular acidification rate than that in the control"}, {"measurement": "AKT expression level relative to the AKT expression level at the start of culture", "setting": "[2]; 48 hours after the start of culture", "value": "≥ 3", "unit": "times"}, {"measurement": "AKT expression versus control", "setting": "[2]; cytotoxic T cells (CD8), 0 to 25 hours", "value": "lower AKT expression than that of the control"}, {"measurement": "AKT expression versus control", "setting": "[2]; cytotoxic T cells (CD8), after 25 hours", "value": "higher AKT expression than that of the control"}, {"measurement": "AKT expression relative to control", "setting": "[2]; cytotoxic T cells (CD8)", "value": "1.3 to 1.7", "unit": "times"}, {"measurement": "AKT expression versus control", "setting": "[2]; helper T cell (CD4), 0 to 20 hours", "value": "lower AKT expression than that of the control"}, {"measurement": "AKT expression versus control", "setting": "[2]; helper T cell (CD4), after 20 hours", "value": "higher AKT expression than that of the control"}, {"measurement": "AKT expression relative to control", "setting": "[2]; helper T cell (CD4)", "value": "1.5 to 2", "unit": "times"}, {"measurement": "time after the start of the culture at which the AKT level is increased again to the level before the PI3K treatment", "setting": "[2]; immune cells cultured after PI3K inhibitor treatment", "value": 20, "unit": "h"}, {"measurement": "AKT expression in iPI3K+/imTOR− group relative to iPI3K−/imTOR−, iPI3K−/imTOR+ and iPI3K+/imTOR+ groups", "setting": "[3]", "value": "1.5 to 2.3", "unit": "times"}, {"measurement": "tumor size", "setting": "[4]; 35 mpk, 15th day", "value": "300 to 350", "unit": "mm^3"}, {"measurement": "tumor size", "setting": "[4]; 50 mpk, day 15", "value": "90 to 100", "unit": "mm^3"}, {"measurement": "tumor size", "setting": "[5]; 35 mpk, 15th day", "value": "200 to 250", "unit": "mm^3"}, {"measurement": "tumor size", "setting": "[5]; 50 mpk, day 15", "value": "90 to 100", "unit": "mm^3"}, {"measurement": "GLUT1 expression level versus BYLT719 and TGX-211 inhibitors", "setting": "[6]; cytotoxic T cells", "value": "higher GLUT1 expression levels"}, {"measurement": "GLUT1 expression level versus BYLT719 and TGX-211 inhibitors", "setting": "[6]; helper T cell", "value": "higher GLUT1 expression levels"}]}]}
